# Results published in publication PMC4847728 (ACS chemical biology, 2015).
# How the values were obtained:
# [1] = tested on: in vitro protein synthesis (E. coli S30 Extract System); assay: In vitro transcription-translation coupled assay; type: biochemical; settings: read-out: IC50, in vitro translation inhibition, pBESTLuc template, 37 °C, 1 h, triplicate
# Bacillus sp. ATCC 27859 = assay: MIC, liquid microdilution, Bacillus; type: cell-based; settings: 18 h, 37 °C
# [2] = tested on: Enterococcus faecium ATCC 12952 (VRE); assay: MIC, liquid microdilution, VRE; type: cell-based; settings: 18 h, 37 °C
# [3] = tested on: Staphylococcus aureus ATCC 10537 (MRSA); assay: MIC, liquid microdilution, MRSA; type: cell-based; settings: 18 h, 37 °C
compound,measurement,setting,value
"C=C(NC(=O)C(=C)NC(=O)c1csc(C2=N[C@@H]3c4csc(n4)[C@H]4NC(=O)c5csc(n5)[C@H]([C@](C)(O)[C@@H](C)O)NC(=O)[C@H]5CSC(=N5)/C(=C/C)NC(=O)[C@H]([C@@H](C)O)NC(=O)c5csc(n5)[C@]3(CC2)NC(=O)[C@H](C)NC(=O)C(=C)NC(=O)[C@H](C)NC(=O)[C@H]([C@@H](C)CC)N[C@@H]2C=Cc3c([C@H](C)O)cc(nc3[C@H]2O)C(=O)O[C@@H]4C)n1)C(N)=O [Thiostrepton A, thiostrepton A]",IC50,[1],630 ± 10 nM
same,MIC Bacillus,Bacillus sp. ATCC 27859,0.025 µg/mL
same,MIC VRE,[2],0.012 µg/mL
same,MIC MRSA,[3],0.012 µg/mL
